Laboratory results taken from patent US5486515A, “2-fluoroalkyl-1,4-benzoxaxines as potassium channel mediators” (Zeneca Limited, priority 1993, dated 1996).
Where two headings read alike, the source gives them in different places.

Columns and labels:
[1] = tested on: bladder detrusor smooth muscle; experiment: first in vitro test: relaxation of guinea pig bladder detrusor strips contracted with 15 mM KCl; format: cell-based, Male albino Hartley guinea pigs; details: for IC50: Cavia porcellus; for relaxation and reduction of the myogenic activity of guinea pig detrusor strips: first test, calcium channel blockers
Description: Male albino Hartley guinea pigs (450-500 g) are sacrificed by carbon dioxide induced asphyxiation and quickly exsanguinated. The lower abdominal cavity is opened and the urinary bladder isolated. […] The solution is warmed to 37° C. and gassed with 95% O2 and 5% CO2. With vigorous bubbling, the solution should have a pH value close to 7.4.
The dome of the washed bladder is cut off and discarded; the remaining bladder is placed on a gauze in a Petri dish containing the buffer solution. A mid-ventral longitudinal cut is made with scissors to open the bladder. The strips cut from the dome and the base edge are discarded. The remaining detrusor mid-section is cut into two horizontal strips with an approximate width of 2.0 mm. These two strips are further bisected at the mid-dorsal section, creating four strip of similar dimensions. Each strip thus contains both dorsal and ventral portions of the bladder.
The two ends of each individual strip are tied to a glass support rod and a force-displacement transducer (Grass model FR03), respectively, with 4-0 black braided silk suture.
The transducers are connected to a polygraph (Grass model 7E), which is calibrated at 5 mV/cm and the calibration checked for linearity with weights of 5 and 0.5 grams. The analog electrical output signals from the polygraph are digitized by a Modular Instrument Micro 5000 signal processing system using Biowindow Data Acquisition Software, which is run under the Microsoft OS/2 operating system with an IBM-compatible PC.
The detrusor strips on the glass rod are secured in 20 ml tissue baths and allowed to equilibrate under a preload tension of 2 grams. During the following 45 to 60 min equilibration period, the tissue is washed with fresh buffer solution at 15 min interval, with the tension adjusted, if necessary, to 2 grams prior to washing. After the equilibration period, a priming dose of 15 mM KCl (total concentration in the bath) is applied. The tissue is washed after 10 min and washed twice more at 15 min intervals with tension adjusted to 2 grams before each washing.
When the tissue relaxes to a steady state after the final washing, 15 mM KCl is again applied. Once the myogenic activity of the tissue reaches a steady state, the baseline data are acquired through the Biowindows Data Acquisition System by averaging 5 min of the myogenic data sampled at 32 Hz. Once the baseline is acquired, the experimental compounds are dosed in a cumulative manner in half log unit increments. The contact time for each dose is 10 min with the final 5 min being the period of time that the dose reponse data are required. […] The effect of the compound at each dose is expressed as % of the maximum inhibitory response, which is further normalized with respect to the corresponding effect of the compound vehicle control. The normalized response is then used to derive the IC50 of the relaxant activity of the compound through the application of Marquardt' s nonlinear iterative curve fitting technique to a standard dose-response function.

[2] = tested on: detrusor smooth muscle; experiment: second in vitro test: relaxation of guinea pig detrusor strips contracted with 80 mM KCl; format: cell-based; details: for potency in the second test relative to the first test: 80 mM KCl vs 15 mM KCl; for relaxation and reduction of the myogenic activity of guinea pig detrusor strips: second test, calcium channel blockers
Description: This second in vitro test is similar to the one described above with regard to tissue preparation and data acquisition. However, the following exceptions are noted. In this second test, the contraction of the detrusor strips during priming and after the equilibration period is achieved with 80 mM instead of 15 mM KCl (total concentration in the bath).

[3] = ability to relax bladder smooth muscle, comparison with non-fluorinated analogs, read-out: IC50

IC50 [1, 3] [nM] | Compound | relaxation and reduction of the myogenic activity of guinea pig detrusor strips ([2]; 80 mM KCl) | other results
4100 | CC1(C)CN(c2cccc[n+]2[O-])c2cc(S(=O)(=O)c3ccccc3)ccc2O1 [*] |  | 
74 | CC1(C)CN(c2cccc[n+]2[O-])c2cc([N+](=O)[O-])ccc2O1 [@] |  | 
540 | CC1(C(F)(F)F)CN(c2cccc[n+]2[O-])c2cc(S(=O)(=O)c3ccccc3)ccc2O1 (stereo not drawn) [Example 1, 2-(2-Methyl-2-trifluoromethyl-6-phenylsulfonyl-3,4-dihydro-2H-1,4-benzoxazin-4-yl)pyridine-N-oxide] |  | IC50 ([1]; guinea pig detrusor strips, read-out: IC50 (50% decrease in the in vitro contraction of the bladder tissue)): 540 nM
25 | O=[N+]([O-])c1ccc2c(c1)N(c1cccc[n+]1[O-])CC(CF)(CF)O2 [Example 4, 2-(2,2-(bis)Fluoromethyl-6-nitro-3,4-dihydro-2-H-1,4-benzoxazine-4-yl)pyridine-N-oxide] |  | 
2250 | O=S(=O)(c1ccccc1)c1ccc2c(c1)N(c1cccc[n+]1[O-])CC(CF)(CF)O2 [Example 5, 2-(2,2-(bis)Fluoromethyl-6-phenylsulfonyl-3,4-dihydro-2H-1,4-benzoxazine-4-yl)pyridine-N-oxide] |  | 
360 | O=S(=O)(c1ccccc1)c1ccc2c(c1)N(c1cccc[n+]1[O-])CC(C(F)F)(C(F)F)O2 [Example 6, 2-(2,2-bis(Difluoromethyl)-6-phenylsulfonyl-3,4-dihydro-2H-1,4-benzoxazine-4-yl)pyridine-N-oxide] |  | 
7 | O=[N+]([O-])c1ccc2c(c1)N(c1cccc[n+]1[O-])CC(C(F)F)(C(F)F)O2 [Example 8, 2-(2,2-bis(Difluoromethyl)-6-nitro-3,4-dihydro-2H-1,4-benzoxazine-4-yl)pyridine-N-oxide] |  | 
 | CC1(C)Oc2ccc(C#N)cc2C(N2CCCC2=O)C1O (stereo not drawn) [cromakalim] |  | IC50 ([1]; putative potassium channel opener, read-out: relaxant activity IC50 in the first test): 600 to 900 nM; relaxant activity in the second test ([2]; 80 mM KCl, at concentrations as high as 30 μM): insignificant relaxant activity
 | COC(=O)C1=C(C)NC(C)=C(C(=O)OC(C)C)C1c1cccc2nonc12 (stereo not drawn) [isradipine] | able to relax and reduce the myogenic activity | relaxation and reduction of the myogenic activity of guinea pig detrusor strips [1]: able to relax and reduce the myogenic activity; potency in the second test relative to the first test [2]: more potent in the second test
 | COC(=O)C1=C(C)NC(C)=C(C(=O)OC)C1c1ccccc1[N+](=O)[O-] [nifedipine] | able to relax and reduce the myogenic activity | 
 | COCCOC(=O)C1=C(C)NC(C)=C(C(=O)OC(C)C)C1c1cccc([N+](=O)[O-])c1 (stereo not drawn) [nimodipine] | able to relax and reduce the myogenic activity | relaxation and reduction of the myogenic activity of guinea pig detrusor strips [1]: able to relax and reduce the myogenic activity; potency in the second test relative to the first test [2]: more potent in the second test
 | COc1ccc(Cc2nccc3cc(OC)c(OC)cc23)cc1OC [papaverine] |  | abolition of the KCl-induced tension ([2]; 80 mM KCl, 300 μM, maximum response): totally abolished
 | COc1ccc(CCN(C)CCCC(C#N)(c2ccc(OC)c(OC)c2)C(C)C)cc1OC (stereo not drawn) [verapamil] | able to relax and reduce the myogenic activity | relaxation and reduction of the myogenic activity of guinea pig detrusor strips [1]: able to relax and reduce the myogenic activity; potency in the second test relative to the first test [2]: more potent in the second test
